Where no end group is shown, it is not given here.
Tested on: CT26/HER-2 carcinoma cell line
Experiment: CT26/HER-2 tumor challenge in immunized Balb/c mice
Type: in vivo
Conditions: for tumor growth inhibition: CT26/HER-2, day 16
Source text: (PMID: 29337305). […] Balb/c mice 6-8 weeks old, were immunized with MVF-peptide immunogens emulsified in ISA 720 with nor-MDP three times and three weeks apart. Mice were immunized with MVF-PD-L1 vaccine constructs [PD-L1(36-53), PD-L1(50-67), PD-L1(95-112), PD-L1(130-147)] prior to tumor challenge. Blood was collected weekly and sera tested for antibody titers by ELISA. Two weeks after the third immunization (3Y), the mice were engrafted with CT26 WT tumor cells 10^5 per mouse Control mice were treated twice weekly with PBS as negative control and twice weekly with anti-mPD-L1 mAb (10F.9G2) as positive control starting 2 days after tumor challenge. Tumor growths were observed twice weekly and measured by calipers.
Vaccines were dissolved in water and emulsified in Montanide ISA 720 (1:1) and 50 μg nor-MDP (N-acetylglucosamine-3yl-acetyl-1-alanyl-d-isoglutamine). Female Balb/c mice (Charles River Laboratories) at the age of 5 to 6 week were immunized three times at 3-week intervals with 100 μg of each peptide vaccine, and 2 weeks after the third immunization, the mice were challenged s.c. with CT-26-HER2 neu tumor cells (100,000 per mouse).
Mice treated twice a week with anti-mouse PD-L1 MAb 10F.9G2 (Bio X Cell, West Lebanon, NH) 200 ug/dose was used as a positive control or purified mouse IgG from mouse sera (Sigma-Aldrich, St. Louis, Mo) as a negative control. Tumor growth was monitored for up to 21 days after challenge. During immunization, blood was drawn biweekly and used in ELISA to monitor Ab titers. The mice were euthanized at the end of treatment and tumors extracted and weighed samples of the tumors were saved for further study and for histological examination.
Two weeks after the third immunization (3Y), the mice were inoculated subcutaneously (s.c) with CT26 carcinoma cells (1×10^5 cells per mouse) and tumor formation was monitored on a daily basis afterwards. Mice treated with PBS served as negative control, and twice weekly treated mice with 200 μg/dose injections of anti-mouse PD-L1 monoclonal antibody (mAb clone 10F.9G2) served as positive control. Tumor growth was monitored daily and measured by caliper. […] PD-L1 B-cell epitope vaccines treatment had similar and significant reduction in tumor growth at day 16 post challenge as compared to negative control treatment with PBS (FIG. 19). […] Tumor sizes at various times are also shown in FIG. 20 and one-way analysis of variance (one-way ANOVA) followed by the Tukey's multiple comparisons test were used to compare data in multiple groups or data between groups.
We also analyzed the different isotypes of antibodies being generated by vaccination.
6-8 weeks old BALB/c mice (Charles River, Wilmington, MA) were used as standard animal models. Mouse CT26 colon carcinoma cell line was purchased from American Type Culture Collection Cells and were regularly cultured in RPMI1640 medium containing 10% FBS. CT26/HER2 cells were kindly provided by M. Penichet. Vaccines were dissolved in sterile water and emulsified in Montanide ISA 720 (1:1). Female Balb/c mice (Charles River Laboratories) at the age of 6-8 weeks were immunized three times at 3-week intervals with 100 μg of each peptide vaccine, and 2 weeks after the third immunization, the mice were challenged with CT26 and/or CT26/HER-2 tumor cells, which were implanted subcutaneously (s.c) on the right flank (1×10^5 per mouse). 200 μg of rat α-mouse PD-L1 mAb 10F.9G2 (Bio X Cell, West Lebanon, NH) were administered intraperitoneally (i.p.), twice weekly following tumor inoculation in the control group. Mice were monitored and scored for the formation of palpable tumors on a daily basis and sacrificed if tumors became necrotic or exceeded the predetermined size of 2,000 mm^3. Tumor volumes were measured in cubic millimeters with calipers and calculated with the following formula: A×B^2×0.5, where A is the largest diameter, and B is the widest point perpendicular to length. […]

| Sequence | tumor growth inhibition | levels of lesions (CT26/HER-2) | percentage of tumor growth inhibition compared to negative control (CT26/HER-2) | tumor inhibition versus PBS (CT26/HER-2, Balb/c) | survival rate (CT26/HER-2, Kaplan-Meier method) | 50% mice survival time / survival rate (CT26 HER2, compared to the other PD-L1 epitopes) |
| --- | --- | --- | --- | --- | --- | --- |
| KLLSLIKGVIVHRLEGVEGPSLFVHGEEDLKVQHSSYRQR (KLLSLIKGVIVHRLEGVEGPSLFVHGEEDLKVQHSSYRQR-NH2) [PD-L1(50)] | strongest tumor growth inhibition |  |  |  |  |  |
| KLLSLIKGVIVHRLEGVEGPSLLIVYWEMEDKNIIQFVHG (KLLSLIKGVIVHRLEGVEGPSLLIVYWEMEDKNIIQFVHG-NH2) [PD-L1(36)] | strongest tumor growth inhibition |  |  |  |  |  |
| KLLSLIKGVIVHRLEGVEGPSLVTSEHELTCQAEGYPKAE (KLLSLIKGVIVHRLEGVEGPSLVTSEHELTCQAEGYPKAE-NH2) [PD-L1(130)] | strongest tumor growth inhibition | lowest levels of lesions | Significant higher percentage of tumor growth inhibition | superior tumor growth inhibition | highest survival rate | better survival rate |
| KLLSLIKGVIVHRLEGVEGPSLYRCMISYGGADYKRITVK (KLLSLIKGVIVHRLEGVEGPSLYRCMISYGGADYKRITVK-NH2) [PD-L1(95)] | strongest tumor growth inhibition |  |  |  |  |  |
